The target of one experiment is T1, Drosophila OR71a (Drosophila melanogaster, UniProt Q9VUK5).
T1 construct: expressed in transfected cells
T1 sequence (Q9VUK5 1-378): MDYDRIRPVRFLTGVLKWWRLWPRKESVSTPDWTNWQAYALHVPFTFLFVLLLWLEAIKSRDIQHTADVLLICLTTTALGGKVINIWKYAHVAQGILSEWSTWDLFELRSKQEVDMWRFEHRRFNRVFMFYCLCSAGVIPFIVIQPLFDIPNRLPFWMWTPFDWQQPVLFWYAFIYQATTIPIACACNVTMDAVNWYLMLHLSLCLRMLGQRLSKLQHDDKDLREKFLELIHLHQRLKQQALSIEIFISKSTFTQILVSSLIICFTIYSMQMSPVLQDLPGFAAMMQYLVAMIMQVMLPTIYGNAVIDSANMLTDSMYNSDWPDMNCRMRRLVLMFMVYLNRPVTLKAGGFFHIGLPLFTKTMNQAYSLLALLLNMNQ
T1 sequence (Q9VNB5 1-486 partner): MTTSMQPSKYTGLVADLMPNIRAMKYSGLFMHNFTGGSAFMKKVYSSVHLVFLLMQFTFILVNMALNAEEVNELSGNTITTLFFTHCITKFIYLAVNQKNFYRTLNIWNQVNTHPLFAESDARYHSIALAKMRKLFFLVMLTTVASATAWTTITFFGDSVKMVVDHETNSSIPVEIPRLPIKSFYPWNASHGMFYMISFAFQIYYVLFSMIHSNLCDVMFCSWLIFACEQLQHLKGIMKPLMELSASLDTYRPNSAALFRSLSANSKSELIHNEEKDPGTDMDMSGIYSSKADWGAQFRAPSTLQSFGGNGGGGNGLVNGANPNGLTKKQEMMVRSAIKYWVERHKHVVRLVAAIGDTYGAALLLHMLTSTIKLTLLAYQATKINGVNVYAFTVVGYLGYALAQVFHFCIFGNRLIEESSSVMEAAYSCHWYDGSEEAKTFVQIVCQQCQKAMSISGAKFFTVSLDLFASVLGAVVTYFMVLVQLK
The experiment can be described thus: Calcium ion fluorescence (GCaMP6) assay, OR71a stable HEK293 cell line. The format is cell-based. The conditions noted are these: for activation at 1 µM / activation at 10 µM / activation at 100 µM: HEK293, read-out: OR71a response (VUAA1-normalized response); for Average response: OR71a cell line, VUAA1-normalized response, mean of biological replicates. The method, boiled down: (§1)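 HEK293 lines stably expressing each Drosophila OR with GCaMP6, doxycycline-induced (1 μg/mL) 48 or 72 h. Fluorescence recorded 5 s baseline then 30 s after VOC injection at pH 7.3; ΔF=(FMAX−F0)/F0, normalized to 50 µM VUAA1 response per line, triplicate wells averaged; concentration series 0.01–100 μM.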

The target of a further experiment is T2, Drosophila OR10a (Drosophila melanogaster, UniProt Q9VYZ1).
T2 construct: expressed in transfected cells
T2 sequence (Q9VYZ1 1-406): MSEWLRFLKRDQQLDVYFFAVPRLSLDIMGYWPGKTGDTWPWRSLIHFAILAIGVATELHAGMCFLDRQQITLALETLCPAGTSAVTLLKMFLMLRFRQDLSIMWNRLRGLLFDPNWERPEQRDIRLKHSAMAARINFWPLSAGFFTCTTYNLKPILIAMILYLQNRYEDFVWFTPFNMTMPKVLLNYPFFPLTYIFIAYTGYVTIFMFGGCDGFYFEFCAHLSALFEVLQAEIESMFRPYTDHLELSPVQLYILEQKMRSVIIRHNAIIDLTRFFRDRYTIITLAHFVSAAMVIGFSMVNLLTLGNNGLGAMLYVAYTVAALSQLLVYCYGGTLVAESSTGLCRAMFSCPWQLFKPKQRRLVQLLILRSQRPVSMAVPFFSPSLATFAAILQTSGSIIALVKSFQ
T2 sequence (Q9VNB5 1-486 partner): T1 sequence (Q9VNB5 1-486 partner)
The experiment can be described thus: Calcium ion fluorescence (GCaMP6) assay, OR10a stable HEK293 cell line. The format is cell-based. The method, boiled down:
as §1

Setting [1] is: ligand concentration 1 (unit not given), threshold 0.05, below shown as 0.
[2] abbreviates: ligand concentration 10 (unit not given), threshold 0.05, below shown as 0.
The mark [3] stands for this setting: ligand concentration 100 (unit not given), threshold 0.05, below shown as 0.
[4] abbreviates: HEK293, 1 μM VOC, 50 μM VUAA1 = 1, responses not exceeding 0.05 considered 0, read-out: OR10a Average response (VUAA1-normalized).
[5] abbreviates: HEK293, 10 μM VOC, 50 μM VUAA1 = 1, responses not exceeding 0.05 considered 0, read-out: OR10a Average response (VUAA1-normalized).
[6] abbreviates: HEK293, 100 μM VOC, 50 μM VUAA1 = 1, responses not exceeding 0.05 considered 0, read-out: OR10a Average response (VUAA1-normalized).
The mark [7] stands for this setting: HEK293, read-out: OR10a response (VUAA1-normalized response), VOC concentration 1 μM.
Setting [8] is: HEK293, read-out: OR10a response (VUAA1-normalized response), VOC concentration 10 μM.
Where [9] appears, read: HEK293, read-out: OR10a response (VUAA1-normalized response), VOC concentration 100 μM.
Setting [10] is: concentration 1, normalized fluorescence change, values below 0.05 threshold given as 0.
The mark [11] stands for this setting: concentration 10, normalized fluorescence change, values below 0.05 threshold given as 0.
Where [12] appears, read: concentration 100, normalized fluorescence change, values below 0.05 threshold given as 0.

The results in this text go back to PMC10709440, “High-throughput ligand profile characterization in novel cell lines expressing seven heterologous insect olfactory receptors for the detection of volatile plant biomarkers” (Scientific Reports, 2023).

SMILES strings stand for the structures. Like-named read-outs stand apart in the source and are kept apart here.

As to `C=CCc1ccc(O)c(OC)c1` [eugenol], the activation at 1 µM was found to be 0% on Drosophila OR71a, 8.49% at Drosophila OR10a (setting [4]) and 8.49% on Drosophila OR10a (setting [7]). Also, the results for the activation at 10 µM at Drosophila OR71a, on Drosophila OR10a (setting [5]) and on Drosophila OR10a (setting [8]) were 0%, 6% and 6%, respectively. The activation at 100 µM on Drosophila OR71a, on Drosophila OR10a (setting [6]) and at Drosophila OR10a (setting [9]) was 0% throughout. Also, the Average response is given as 0.00 on Drosophila OR71a (cc. 1 µM), 0.0465 on Drosophila OR71a (cc. 10 µM) and 0.0247 on Drosophila OR71a (cc. 100 µM). In addition, the “DF norm AVERAGE OR71a” value on Drosophila OR71a (setting [1]), on Drosophila OR71a (setting [2]) and on Drosophila OR71a (setting [3]) was 0 each time. Also, the figures for the “DF norm AVERAGE OR10a” value at Drosophila OR10a (setting [1]), at Drosophila OR10a (setting [2]) and at Drosophila OR10a (setting [3]) were 0.08485, 0.05743 and 0, respectively.

Turning to `C=C(C)[C@H]1CC=C(C)CC1` [limonene], the Average response at Drosophila OR71a (cc. 1 µM), at Drosophila OR71a (cc. 10 µM) and at Drosophila OR71a (cc. 100 µM) was 0.00 each time. The “OR71a response (VUAA1-normalized response)” value at Drosophila OR71a (VOC concentration 1 μM), on Drosophila OR71a (VOC concentration 10 μM) and on Drosophila OR71a (VOC concentration 100 μM) was 0.00 throughout. In addition, the “DF norm AVERAGE OR71a” value at Drosophila OR71a (setting [1]), on Drosophila OR71a (setting [2]) and at Drosophila OR71a (setting [3]) was 0 in each case. Besides, the “OR10a Average response (VUAA1-normalized)” value is 0.00 on Drosophila OR10a (1 μM VOC, 50 μM VUAA1 = 1, responses not exceeding 0.05 considered 0); 0.00 on Drosophila OR10a (10 μM VOC, 50 μM VUAA1 = 1, responses not exceeding 0.05 considered 0); 0.06 at Drosophila OR10a (100 μM VOC, 50 μM VUAA1 = 1, responses not exceeding 0.05 considered 0). Besides, the entries for the “OR10a response (VUAA1-normalized response)” value at Drosophila OR10a (VOC concentration 1 μM), at Drosophila OR10a (VOC concentration 10 μM) and at Drosophila OR10a (VOC concentration 100 μM) were 0.00, 0.00 and 0.06, respectively. The “DF norm AVERAGE OR10a” value at Drosophila OR10a (setting [1]) is 0; at Drosophila OR10a (setting [2]), 0; at Drosophila OR10a (setting [3]), 0.05729.

`CCCC(=O)OCC` [ethyl butyrate]: the activation at 1 µM on Drosophila OR71a, at Drosophila OR10a (setting [4]) and at Drosophila OR10a (setting [7]) was 0% throughout. For the same molecule, the activation at 10 µM on Drosophila OR71a stood at 0%; on Drosophila OR10a (setting [5]) it was 2.38%; on Drosophila OR10a (setting [8]), 0%. For the same molecule, the activation at 100 µM on Drosophila OR71a came out at 0%; on Drosophila OR10a (setting [6]) it was 2.76%; on Drosophila OR10a (setting [9]) it was 0%. Also, the Average response on Drosophila OR71a (cc. 1 µM), at Drosophila OR71a (cc. 10 µM) and at Drosophila OR71a (cc. 100 µM) was 0.00 each time. The “DF norm AVERAGE OR71a” value at Drosophila OR71a (setting [1]), at Drosophila OR71a (setting [2]) and on Drosophila OR71a (setting [3]) was 0 throughout. For the same molecule, the “DF norm AVERAGE OR10a” value on Drosophila OR10a (setting [1]), at Drosophila OR10a (setting [2]) and on Drosophila OR10a (setting [3]) was 0 each time.

For `CC1=CCC2C(C1)C2(C)C` (stereo not drawn) [3-carene], the activation at 1 µM on Drosophila OR71a worked out at 0%; at Drosophila OR10a (HEK293, read-out: OR10a Average response (VUAA1-normalized), 1 μM VOC, 50 μM VUAA1 = 1, responses not exceeding 0.05 considered 0) it was 7%; on Drosophila OR10a (setting [7]), 7%. Besides, the activation at 10 µM was found to be 0% at Drosophila OR71a; 0% at Drosophila OR10a (HEK293, read-out: OR10a Average response (VUAA1-normalized), 10 μM VOC, 50 μM VUAA1 = 1, responses not exceeding 0.05 considered 0); 0% at Drosophila OR10a (setting [8]). Also, the activation at 100 µM on Drosophila OR71a stood at 0%; at Drosophila OR10a (HEK293, read-out: OR10a Average response (VUAA1-normalized), 100 μM VOC, 50 μM VUAA1 = 1, responses not exceeding 0.05 considered 0) it was 0%; on Drosophila OR10a (setting [9]), 0%. Moreover, the Average response on Drosophila OR71a (cc. 1 µM), on Drosophila OR71a (cc. 10 µM) and on Drosophila OR71a (cc. 100 µM) was 0.00 throughout. Also, the “DF norm AVERAGE OR71a” value on Drosophila OR71a (setting [10]), on Drosophila OR71a (setting [11]) and at Drosophila OR71a (setting [12]) was 0 throughout. In addition, the “DF norm AVERAGE OR10a” value on Drosophila OR10a (setting [10]) was found to be 0.0692; at Drosophila OR10a (setting [11]), 0; at Drosophila OR10a (setting [12]) it was 0.
